Measured values published in ChEMBL document CHEMBL3885861, “Open TG-GATES”.

Organism: Rattus norvegicus
Test: Open TG-GATES - Regimen: Single
Format: toxicity, organism-based, Sprague-Dawley
Set-up: regimen Single, gender Male, age 6 weeks
Details: in vivo, po, 50 mg/kg, route gavage, dose level Middle; for APTT / Bas / Eos / Fbg / Hb / Ht / Lym / MCH / MCHC / MCV / Mono / Neu / PT / Plat / RBC / Ret / WBC: tissue Blood; for KIDNEY_L / KIDNEY_R / KIDNEY_TOTAL: tissue Kidney; for LIVER: tissue Liver; for A/G / ALP / ALT / AST / BUN / CRE / Ca / Cl / DBIL / GLC / IP / K / LDH / Na / PL / RALB / TBIL / TC / TG / TP / gamma-GTP: tissue Plasma

S=C=Nc1cccc2ccccc12 [1-NAPHTHYLISOTHIOCYANATE] was tested, and the TERMINAL_BW (3 h) was 223.2 g, the APTT (3 h) was 18.3 s and the Bas (3 h) was 0.2%. For the same compound, the Eos (3 h) was 1%, the Fbg (3 h) was 237 mg/dL and the Hb (3 h) was 13.7 g/dL. For the same compound, the Ht (3 h) was 38.1%, the Lym (3 h) was 76.6% and the MCH (3 h) was 21.4 pg. It also gave an MCHC (3 h) of 35.9%, an MCV (3 h) of 59.7 fL and a Mono (3 h) of 2.6%. The Neu (3 h) was 18.8%, the PT (3 h) was 11.6 s and the Plat (3 h) was 118.2 x10_4/uL. It also gave an RBC (3 h) of 639.2 x10_4/ul, a Ret (3 h) of 8% and a WBC (3 h) of 87.7 x10_2/uL. For the same compound, the KIDNEY_L (3 h) was 0.9 g, the KIDNEY_R (3 h) was 1 g and the KIDNEY_TOTAL (3 h) was 1.9 g. The LIVER (3 h) was 9.8 g, the A/G (3 h) was 1.7 and the ALP (3 h) was 1022.2 IU/L. The ALT (3 h) was 45 IU/L, the AST (3 h) was 80.2 IU/L and the BUN (3 h) was 9.6 mg/dL. For the same compound, the CRE (3 h) was 0.4 mg/dL, the Ca (3 h) was 10.8 mg/dL and the Cl (3 h) was 102.8 meq/L. It also gave a DBIL (3 h) of 0.1 mg/dL, a GLC (3 h) of 240.6 mg/dL and an IP (3 h) of 10.1 mg/dL. The K (3 h) was 3.9 meq/L, the LDH (3 h) was 179.8 IU/L and the Na (3 h) was 141.4 meq/L. For the same compound, the PL (3 h) was 154.2 mg/dL, the RALB (3 h) was 3.6 g/dL and the TBIL (3 h) was 0.1 mg/dL. It also gave a TC (3 h) of 85.2 mg/dL, a TG (3 h) of 77.4 mg/dL and a TP (3 h) of 5.7 g/dL. The gamma-GTP (3 h) was 0.8 IU/L, the TERMINAL_BW (6 h) was 220.8 g and the APTT (6 h) was 19.2 s. It also gave a Bas (6 h) of 0%, an Eos (6 h) of 0.4% and a Fbg (6 h) of 239.8 mg/dL. It also gave a Hb (6 h) of 13.9 g/dL, a Ht (6 h) of 38.9% and a Lym (6 h) of 79.2%. It also gave an MCH (6 h) of 21.3 pg, an MCHC (6 h) of 35.6% and an MCV (6 h) of 59.8 fL. For the same compound, the Mono (6 h) was 2.2%, the Neu (6 h) was 17% and the PT (6 h) was 12 s. It also gave a Plat (6 h) of 126.8 x10_4/uL, an RBC (6 h) of 651.4 x10_4/ul and a Ret (6 h) of 7%. For the same compound, the WBC (6 h) was 80.1 x10_2/uL, the KIDNEY_L (6 h) was 1 g and the KIDNEY_R (6 h) was 1 g. For the same compound, the KIDNEY_TOTAL (6 h) was 1.9 g, the LIVER (6 h) was 9.3 g and the A/G (6 h) was 1.5. For the same compound, the ALP (6 h) was 936.2 IU/L, the ALT (6 h) was 36.6 IU/L and the AST (6 h) was 72.8 IU/L. For the same compound, the BUN (6 h) was 8.6 mg/dL, the CRE (6 h) was 0.4 mg/dL and the Ca (6 h) was 10.6 mg/dL. The Cl (6 h) was 101.8 meq/L, the DBIL (6 h) was 0.2 mg/dL and the GLC (6 h) was 321.6 mg/dL. The IP (6 h) was 10.2 mg/dL, the K (6 h) was 4.2 meq/L and the LDH (6 h) was 208 IU/L. For the same compound, the Na (6 h) was 140.2 meq/L, the PL (6 h) was 153.8 mg/dL and the RALB (6 h) was 3.5 g/dL. For the same compound, the TBIL (6 h) was 0.2 mg/dL, the TC (6 h) was 84.6 mg/dL and the TG (6 h) was 69.8 mg/dL. For the same compound, the TP (6 h) was 5.8 g/dL, the gamma-GTP (6 h) was 1 IU/L and the TERMINAL_BW (9 h) was 214.5 g. For the same compound, the APTT (9 h) was 17.9 s, the Bas (9 h) was 0% and the Eos (9 h) was 0.6%. It also gave a Fbg (9 h) of 254 mg/dL, a Hb (9 h) of 13.7 g/dL and a Ht (9 h) of 38.2%. The Lym (9 h) was 76.8%, the MCH (9 h) was 22.3 pg and the MCHC (9 h) was 35.9%. It also gave an MCV (9 h) of 62 fL, a Mono (9 h) of 2.2% and a Neu (9 h) of 19.2%. For the same compound, the PT (9 h) was 12 s, the Plat (9 h) was 133.4 x10_4/uL and the RBC (9 h) was 615.6 x10_4/ul. For the same compound, the Ret (9 h) was 7.2%, the WBC (9 h) was 80 x10_2/uL and the KIDNEY_L (9 h) was 0.9 g. The KIDNEY_R (9 h) was 0.9 g, the KIDNEY_TOTAL (9 h) was 1.8 g and the LIVER (9 h) was 8.8 g. The A/G (9 h) was 1.6, the ALP (9 h) was 826 IU/L and the ALT (9 h) was 34.2 IU/L. The AST (9 h) was 60 IU/L, the BUN (9 h) was 10 mg/dL and the CRE (9 h) was 0.4 mg/dL. The Ca (9 h) was 10.7 mg/dL, the Cl (9 h) was 102 meq/L and the DBIL (9 h) was 0.2 mg/dL. It also gave a GLC (9 h) of 321.8 mg/dL, an IP (9 h) of 10 mg/dL and a K (9 h) of 4.3 meq/L. The LDH (9 h) was 150.4 IU/L, the Na (9 h) was 141.2 meq/L and the PL (9 h) was 147.8 mg/dL. The RALB (9 h) was 3.5 g/dL, the TBIL (9 h) was 0.2 mg/dL and the TC (9 h) was 79.8 mg/dL. The TG (9 h) was 72 mg/dL, the TP (9 h) was 5.8 g/dL and the gamma-GTP (9 h) was 1.2 IU/L. For the same compound, the TERMINAL_BW (24 h) was 214.8 g, the APTT (24 h) was 19.7 s and the Bas (24 h) was 0.6%. It also gave an Eos (24 h) of 0.4%, a Fbg (24 h) of 357 mg/dL and a Hb (24 h) of 14.3 g/dL. The Ht (24 h) was 37.9%, the Lym (24 h) was 48% and the MCH (24 h) was 22.4 pg. For the same compound, the MCHC (24 h) was 37.7%, the MCV (24 h) was 59.2 fL and the Mono (24 h) was 4.6%. The Neu (24 h) was 44.6%, the PT (24 h) was 12.2 s and the Plat (24 h) was 131.9 x10_4/uL. For the same compound, the RBC (24 h) was 639.6 x10_4/ul, the Ret (24 h) was 6% and the WBC (24 h) was 118.9 x10_2/uL. For the same compound, the KIDNEY_L (24 h) was 1 g, the KIDNEY_R (24 h) was 1 g and the KIDNEY_TOTAL (24 h) was 2 g. For the same compound, the LIVER (24 h) was 9.2 g, the A/G (24 h) was 1.3 and the ALP (24 h) was 1257.2 IU/L. The ALT (24 h) was 153.8 IU/L, the AST (24 h) was 366.6 IU/L and the BUN (24 h) was 10.4 mg/dL. It also gave a CRE (24 h) of 0.4 mg/dL, a Ca (24 h) of 10.4 mg/dL and a Cl (24 h) of 98 meq/L. It also gave a DBIL (24 h) of 0.9 mg/dL, a GLC (24 h) of 177.6 mg/dL and an IP (24 h) of 8.6 mg/dL. The K (24 h) was 3.5 meq/L, the LDH (24 h) was 617.6 IU/L and the Na (24 h) was 141.4 meq/L. The PL (24 h) was 218.2 mg/dL, the RALB (24 h) was 3.2 g/dL and the TBIL (24 h) was 1.1 mg/dL. For the same compound, the TC (24 h) was 107 mg/dL, the TG (24 h) was 64.8 mg/dL and the TP (24 h) was 5.7 g/dL. It also gave a gamma-GTP (24 h) of 6.2 IU/L.
